Assay results published in patent US20250230193A1, “CYCLIC COMPOUND HAVING SELECTIVE KRAS INHIBITORY EFFECT ON HRAS AND NRAS” (CHUGAI SEIYAKU KABUSHIKI KAISHA, priority 2022, published 2025).

Columns and labels:
[1] = target: GDP-bound HRAS wild-type protein (Homo sapiens, UniProt P01112); assay: Binding to HRAS by surface plasmon resonance (SPR), Single Cycle Kinetics; settings: KD ratio HRAS/KRAS, SPR, GDP-bound wild-type proteins
[2] = target: GDP-bound NRAS wild-type protein (Homo sapiens, UniProt P01111); assay: Binding to NRAS by surface plasmon resonance (SPR), Single Cycle Kinetics; settings: KD ratio NRAS/KRAS, SPR, GDP-bound wild-type proteins
Chain of GDP-bound NRAS wild-type protein (P01111 whole entry): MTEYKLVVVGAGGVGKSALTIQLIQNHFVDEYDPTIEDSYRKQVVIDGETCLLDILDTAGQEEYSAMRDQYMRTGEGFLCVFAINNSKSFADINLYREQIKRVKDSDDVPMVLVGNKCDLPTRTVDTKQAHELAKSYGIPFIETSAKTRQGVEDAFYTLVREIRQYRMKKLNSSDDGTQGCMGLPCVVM

Chain of GDP-bound HRAS wild-type protein (P01112 whole entry): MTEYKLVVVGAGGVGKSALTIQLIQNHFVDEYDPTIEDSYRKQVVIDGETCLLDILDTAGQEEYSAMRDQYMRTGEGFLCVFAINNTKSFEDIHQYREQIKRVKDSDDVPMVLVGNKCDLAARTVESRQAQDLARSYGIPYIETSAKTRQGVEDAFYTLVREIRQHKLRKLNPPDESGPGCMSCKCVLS

| SMILES | HRAS/KRAS (ratio of KD value with respect to GDP-bound HRAS wild-type protein to KD value with respect to KRAS) [1] | NRAS/KRAS (ratio of KD value with respect to GDP-bound NRAS wild-type protein to KD value with respect to KRAS) [2] |
| --- | --- | --- |
| CCC[C@H]1C(=O)N[C@@H](C2CCCC2)C(=O)N(C)CC(=O)N(C)[C@H]2C/C=C\CCN(C2=O)[C@@H](Cc2ccc(C)cc2)C(=O)N(C)CC(=O)N[C@@H](CCc2ccc(C(F)(F)F)c(OC)c2)C(=O)N2C[C@H](OCC)C[C@H]2C(=O)NC2(CC(C)(C)C2)C(=O)N(C)[C@@H](CC(C)(C)C)C(=O)N(C)[C@H](C(=O)N(C)C)CC(=O)N1C [PP3005] | B (a compound having 3 or more and less than 10 is denoted as B) | A (a compound having 10 or more and less than 20 is denoted as A) |
| CCC[C@H]1C(=O)N[C@@H]([C@@H](C)CC)C(=O)N(C)CC(=O)N(C)[C@H]2C/C=C\CCN(C2=O)[C@@H](Cc2ccc(C)cc2)C(=O)N(C)CC(=O)N[C@@H](CCc2ccc(C(F)(F)F)c(OC)c2)C(=O)N2C[C@H](OCC)C[C@H]2C(=O)NC2(CC(C)(C)C2)C(=O)N(C)[C@@H]([C@@H](C)CC)C(=O)N(C)[C@H](C(=O)N(C)C)CC(=O)N1C [PP3006] | A (a compound having 10 or more and less than 20 is denoted as A) | A (a compound having 10 or more and less than 20 is denoted as A) |
| CCC[C@H]1C(=O)N[C@@H]([C@@H](C)CC)C(=O)N(C)CC(=O)N(C)[C@H]2C/C=C\CCN(C2=O)[C@@H](Cc2ccc(C)cc2)C(=O)N(C)CC(=O)N[C@@H](CCc2ccc(C(F)(F)F)c(OC)c2)C(=O)N2C[C@H](OCC)C[C@H]2C(=O)NC2(CC(C)(C)C2)C(=O)N(C)[C@@H](CC(F)(F)F)C(=O)N(C)[C@H](C(=O)N(C)C)CC(=O)N1C [PP3007] | A (a compound having 10 or more and less than 20 is denoted as A) | A (a compound having 10 or more and less than 20 is denoted as A) |
| CCC[C@H]1C(=O)N[C@@H]([C@@H](C)CC)C(=O)N(C)CC(=O)N(C)[C@H]2C/C=C\CCN(C2=O)[C@@H](Cc2ccc(C)cc2)C(=O)N(C)CC(=O)N[C@@H](CCc2ccc(C(F)(F)F)c(OC)c2)C(=O)N2C[C@H](OCC)C[C@H]2C(=O)NC2(CC(C)(C)C2)C(=O)N(C)[C@@H](CC(C)C)C(=O)N(C)[C@H](C(=O)N(C)C)CC(=O)N1C [PP3008] | A (a compound having 10 or more and less than 20 is denoted as A) | A (a compound having 10 or more and less than 20 is denoted as A) |
| CCC[C@H]1C(=O)N[C@@H]([C@@H](C)CC)C(=O)N(C)CC(=O)N(C)[C@H]2C/C=C\CCN(C2=O)[C@@H](Cc2ccc(C)cc2)C(=O)N(C)CC(=O)N[C@@H](CCc2ccc(C(F)(F)F)c(OC)c2)C(=O)N2CC3(CC3)C[C@H]2C(=O)NC2(CC(C)(C)C2)C(=O)N(C)[C@@H](CC(C)(C)C)C(=O)N(C)[C@H](C(=O)N(C)C)CC(=O)N1C [PP3009] | A (a compound having 10 or more and less than 20 is denoted as A) | A (a compound having 10 or more and less than 20 is denoted as A) |
| CCC[C@H]1C(=O)N[C@@H](C2CCCC2)C(=O)N(C)CC(=O)N(C)[C@H]2C/C=C\CCN(C2=O)[C@@H](Cc2ccc(C)cc2)C(=O)N(C)CC(=O)N[C@@H](CCc2ccc(C(F)(F)F)c(OC)c2)C(=O)N2CC3(CC3)C[C@H]2C(=O)NC2(CC(C)(C)C2)C(=O)N(C)[C@@H](CC(C)(C)C)C(=O)N(C)[C@H](C(=O)N(C)C)CC(=O)N1C [PP3010] | B (a compound having 3 or more and less than 10 is denoted as B) | B (a compound having 3 or more and less than 10 is denoted as B) |
| CCC[C@H]1C(=O)N[C@@H]([C@@H](C)CC)C(=O)N(C)CC(=O)N(C)[C@H]2C/C=C\CCN(C2=O)[C@@H](Cc2ccc(C)cc2)C(=O)N(C)CC(=O)N[C@@H](CCc2ccc(C(F)(F)F)c(OC)c2)C(=O)N2CC3(CC3)C[C@H]2C(=O)NC2(CC(C)(C)C2)C(=O)N(C)[C@@H]([C@@H](C)CC)C(=O)N(C)[C@H](C(=O)N(C)C)CC(=O)N1C [PP3011] | B (a compound having 3 or more and less than 10 is denoted as B) | A (a compound having 10 or more and less than 20 is denoted as A) |
| CCC[C@H]1C(=O)N[C@@H]([C@@H](C)CC)C(=O)N(C)CC(=O)N(C)[C@H]2C/C=C\CCN(C2=O)[C@@H](Cc2ccc(C)cc2)C(=O)N(C)CC(=O)N[C@@H](CCc2ccc(C(F)(F)F)c(OC)c2)C(=O)N2CC3(CC3)C[C@H]2C(=O)NC2(CC(C)(C)C2)C(=O)N(C)[C@@H](CC(F)(F)F)C(=O)N(C)[C@H](C(=O)N(C)C)CC(=O)N1C [PP3012] | A (a compound having 10 or more and less than 20 is denoted as A) | A (a compound having 10 or more and less than 20 is denoted as A) |
| CCC[C@H]1C(=O)N[C@@H]([C@@H](C)CC)C(=O)N(C)CC(=O)N(C)[C@H]2C/C=C\CCN(C2=O)[C@@H](Cc2ccc(C)cc2)C(=O)N(C)CC(=O)N[C@@H](CCc2ccc(C(F)(F)F)c(OC)c2)C(=O)N2CC3(CC3)C[C@H]2C(=O)NC2(CC(C)(C)C2)C(=O)N(C)[C@@H](CC(C)C)C(=O)N(C)[C@H](C(=O)N(C)C)CC(=O)N1C [PP3013] | B (a compound having 3 or more and less than 10 is denoted as B) | AA (a compound having 20 or more is denoted as AA) |
| CCC[C@H]1C(=O)N[C@@H](C2CCCCC2)C(=O)N(C)CC(=O)N(C)[C@H]2C/C=C\CCN(C2=O)[C@@H](Cc2ccc(C(F)(F)F)cc2)C(=O)N(C)CC(=O)N[C@@H](CCc2ccc(C(F)(F)F)c(Cl)c2)C(=O)N2C[C@H](OCC)C[C@H]2C(=O)NC2(CC(C)(C)C2)C(=O)N(C)[C@@H](CC(C)(C)C)C(=O)N(C)[C@H](C(=O)N(C)C)CC(=O)N1C [PP3014] | A (a compound having 10 or more and less than 20 is denoted as A) | AA (a compound having 20 or more is denoted as AA) |
| CCC[C@H]1C(=O)N[C@@H](C2CCCCC2)C(=O)N(C)CC(=O)N(C)[C@H]2C/C=C\CCN(C2=O)[C@@H](Cc2ccc(C(F)(F)F)cc2)C(=O)N(C)CC(=O)N[C@@H](CCc2ccc(C(F)(F)F)c(Cl)c2)C(=O)N2C[C@H](OCC)C[C@H]2C(=O)NC2(CC(C)(C)C2)C(=O)N(C)[C@@H]([C@@H](C)CC)C(=O)N(C)[C@H](C(=O)N(C)C)CC(=O)N1C [PP3015] | A (a compound having 10 or more and less than 20 is denoted as A) | AA (a compound having 20 or more is denoted as AA) |
| CCC[C@H]1C(=O)N[C@@H](C2CCCCC2)C(=O)N(C)CC(=O)N(C)[C@H]2C/C=C\CCN(C2=O)[C@@H](Cc2ccc(C(F)(F)F)cc2)C(=O)N(C)CC(=O)N[C@@H](CCc2ccc(C(F)(F)F)c(Cl)c2)C(=O)N2C[C@H](OCC)C[C@H]2C(=O)NC2(CC(C)(C)C2)C(=O)N(C)[C@@H](CC(C)C)C(=O)N(C)[C@H](C(=O)N(C)C)CC(=O)N1C [PP3017] | A (a compound having 10 or more and less than 20 is denoted as A) | AA (a compound having 20 or more is denoted as AA) |
| CCC[C@H]1C(=O)N[C@@H](C2CCCCC2)C(=O)N(C)CC(=O)N(C)[C@H]2C/C=C\CCN(C2=O)[C@@H](Cc2ccc(C)cc2)C(=O)N(C)CC(=O)N[C@@H](CCc2ccc(C(F)(F)F)c(Cl)c2)C(=O)N2C[C@H](OCC)C[C@H]2C(=O)NC2(CC(C)(C)C2)C(=O)N(C)[C@@H](CC(C)(C)C)C(=O)N(C)[C@H](C(=O)N(C)C)CC(=O)N1C [PP3018] | B (a compound having 3 or more and less than 10 is denoted as B) | A (a compound having 10 or more and less than 20 is denoted as A) |
| CCC[C@H]1C(=O)N[C@@H](C2CCCCC2)C(=O)N(C)CC(=O)N(C)[C@H]2C/C=C\CCN(C2=O)[C@@H](Cc2ccc(C)cc2)C(=O)N(C)CC(=O)N[C@@H](CCc2ccc(C(F)(F)F)c(Cl)c2)C(=O)N2C[C@H](OCC)C[C@H]2C(=O)NC2(CC(C)(C)C2)C(=O)N(C)[C@@H](CC(C)C)C(=O)N(C)[C@H](C(=O)N(C)C)CC(=O)N1C [PP3021] | A (a compound having 10 or more and less than 20 is denoted as A) | AA (a compound having 20 or more is denoted as AA) |
| CCC[C@H]1C(=O)N[C@@H](C2CCOCC2)C(=O)N(C)CC(=O)N(C)[C@H]2C/C=C\CCN(C2=O)[C@@H](Cc2ccc(C(F)(F)F)cc2)C(=O)N(C)CC(=O)N[C@@H](CCc2ccc(C(F)(F)F)c(Cl)c2)C(=O)N2C[C@H](OCC)C[C@H]2C(=O)NC2(CC(C)(C)C2)C(=O)N(C)[C@@H](CC(C)(C)C)C(=O)N(C)[C@H](C(=O)N(C)C)CC(=O)N1C [PP3022] | A (a compound having 10 or more and less than 20 is denoted as A) | AA (a compound having 20 or more is denoted as AA) |
| CCC[C@H]1C(=O)N[C@@H](C2CCOCC2)C(=O)N(C)CC(=O)N(C)[C@H]2C/C=C\CCN(C2=O)[C@@H](Cc2ccc(C)cc2)C(=O)N(C)CC(=O)N[C@@H](CCc2ccc(C(F)(F)F)c(Cl)c2)C(=O)N2C[C@H](OCC)C[C@H]2C(=O)NC2(CC(C)(C)C2)C(=O)N(C)[C@@H](CC(C)(C)C)C(=O)N(C)[C@H](C(=O)N(C)C)CC(=O)N1C [PP3026] | A (a compound having 10 or more and less than 20 is denoted as A) | A (a compound having 10 or more and less than 20 is denoted as A) |
